Values of other authors as cited in patent US20210379001A1, “SUPPLEMENT INCLUDING GAMMA-AMINOBUTYRIC ACID FOR RESTORING GROWTH HORMONE LEVELS” (1198966 B.C. LTD., priority 2020, published 2021).

System: GABA levels in rat striatal tissue and striatal extracellular fluid

NC(=O)CC[C@H](N)C(=O)O [L-Glutamine]
striatal GABA levels (2,5 h after oral 2.0 g/kg of glutamine, vehicle-treated rats 1.76+/−0.04): 2.00 ± 0.15 µmol/g | response evoked by NMDA, over baseline (ECF GABA, NMDA alone 70%, P<0.05): 120% | increase of ECF GABA concentrations (rat striatal extracellular fluid, P<0.05): 30%
